Results: patent US5041426A, “Immune system enhancing 3-β-d-ribofuranosylthiazolo[4,5-d]pyridimine nucleosides and nucleotides” (priority 1988, dated 1991)

Tested on: Influenza B Virus
Assay: Antiviral activity against Influenza B virus infection in mice
Format: in vivo, mouse
Conditions: for Mean Survival Time: once a day at -2 h and days 2, 4, 6
Method: Compound 7 was tested therapeutically against Influenza B Virus Infection in Mice. In addition to a saline control Ribavirin, a known antiviral, was utilized for test purposes.
hours previrus inoculation.
^c p < .001 twotailed ttest.

## Nc1nc2c(sc(=O)n2[C@@H]2O[C@H](CO)[C@@H](O)[C@H]2O)c(=O)[nH]1 [Compound 7, 5-Amino-3-β-D-ribofuranosylthiazolo[4,5-d]pyrimidine-2,7(6H)-dione]
50 mg/kg/day
  Mean Survival Time: 6.4 ± 1.5 days
100 mg/kg/day
  Mean Survival Time: 6.6 ± 1.1 days
Table 12
  efficacy against influenza B (in words): efficacy between saline, having no antiviral activity against influenza, and Ribavirin
Further test
  antiviral activity against influenza B virus, further test: little or no antiviral activity
